Test system: healthy-1 or PD-2 fibroblasts
Assay: Peroxisome movement or distribution, EGFP-peroxisome live imaging
Format: cell-based, human
Conditions: 10 μM for 30 hrs
Method: FIG. 8. Related to FIG. 2-4. Miro1 Reducer in Human Cell and Fly Models. (A) Fibroblasts from Healthy-1 and PD-2 were treated, lysed, and blotted as indicated. Band intensities are normalized to those of GAPDH from the same blots and compared to “Healthy-1, no treatment”. n=4 independent experiments. (B) Fibroblasts from PD-2 were treated and immunostained as indicated. The intensity was quantified for each cell across 264-320 cells from 3 independent experiments, compared to “no treatment”. (C) Fibroblasts were treated, immunoprecipitated (IPed) with anti-Miro1, and blotted as indicated. Similar results were observed twice. (D) Similar as in (C), fibroblasts were treated as indicated, and IPed with anti-Miro1. The GTPase activity of the IPed Miro1 protein was measured as described in Method. […] The MitoSox intensity was quantified for each cell across 106-161 cells from 3 coverslips. […] The TMRM intensity was measured for each cell across 48-60 cells from 3 independent experiments, and expressed as a fraction of the mean of “Healthy-1, no treatment”. […] The movement (the intensity of non-yellow) was quantified for each cell as described in (Tsai et al., 2014) across 22-31 cells from 3 transfections. […] (1) Left: The percentage of TH-positive iPSC-derived neurons out of total cells (Dapi-positive) is calculated after immunocytochemistry under 20× as described in FIG. 3. […]

O=C(Nc1ccc(Nc2cc(-n3ccnc3)ncn2)cc1)Nc1cccc(F)c1 [Miro1 Reducer]
peroxisome movement or distribution: did not affect
